# Data: the supplement of paper PMC10307832
# Key:
# Assay in all cases: relative viability (nuclei count vs DMSO), 5 days (fraction); higher = more cells survive
# Sorafenib + Alpelisib = compound: CNC(=O)c1cc(Oc2ccc(NC(=O)Nc3ccc(Cl)c(C(F)(F)F)c3)cc2)ccn1 [Sorafenib] + Cc1nc(NC(=O)N2CCC[C@H]2C(N)=O)sc1-c1ccnc(C(C)(C)C(F)(F)F)c1 [Alpelisib] (partner 2 µM)
# In short: (§1)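 Dosing by pin tool came one day after lung cancer cell lines were seeded in 1536-well plates, using either one drug or a fixed anchor-drug dose plus five library-drug doses (not always all listed) in √10 steps. After 5 days, nuclei were counted on 4× images. Relative viability is treated-well nuclei count divided by vehicle-well nuclei count, and values are medians of duplicate plates.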
# Sorafenib + Foretinib = compound: CNC(=O)c1cc(Oc2ccc(NC(=O)Nc3ccc(Cl)c(C(F)(F)F)c3)cc2)ccn1 [Sorafenib] + COc1cc2c(Oc3ccc(NC(=O)C4(C(=O)Nc5ccc(F)cc5)CC4)cc3F)ccnc2cc1OCCCN1CCOCC1 [Foretinib] (partner 0.25 µM)
# In short: as §1
# Sorafenib + Olaparib = compound: CNC(=O)c1cc(Oc2ccc(NC(=O)Nc3ccc(Cl)c(C(F)(F)F)c3)cc2)ccn1 [Sorafenib] + O=C(c1cc(Cc2n[nH]c(=O)c3ccccc23)ccc1F)N1CCN(C(=O)C2CC2)CC1 [Olaparib] (partner 8 µM)
# In short: as §1
# Sorafenib + OSI-027 = compound: CNC(=O)c1cc(Oc2ccc(NC(=O)Nc3ccc(Cl)c(C(F)(F)F)c3)cc2)ccn1 [Sorafenib] + COc1cccc2cc(-c3nc([C@H]4CC[C@H](C(=O)O)CC4)n4ncnc(N)c34)[nH]c12 [OSI-027] (partner 0.5 µM)
# In short: as §1
# Sorafenib + Navitoclax = compound: CNC(=O)c1cc(Oc2ccc(NC(=O)Nc3ccc(Cl)c(C(F)(F)F)c3)cc2)ccn1 [Sorafenib] + CC1(C)CCC(c2ccc(Cl)cc2)=C(CN2CCN(c3ccc(C(=O)NS(=O)(=O)c4ccc(N[C@H](CCN5CCOCC5)CSc5ccccc5)c(S(=O)(=O)C(F)(F)F)c4)cc3)CC2)C1 [Navitoclax] (partner 0.5 µM)
# In short: as §1
Cell Line,relative viability (Sorafenib + Alpelisib; first compound 0.08 µM),relative viability (Sorafenib + Alpelisib; first compound 0.253 µM),relative viability (Sorafenib + Alpelisib; first compound 2.53 µM),relative viability (Sorafenib + Alpelisib; first compound 8 µM),relative viability (Sorafenib + Foretinib; first compound 0.08 µM),relative viability (Sorafenib + Foretinib; first compound 0.253 µM),relative viability (Sorafenib + Foretinib; first compound 2.53 µM),relative viability (Sorafenib + Foretinib; first compound 8 µM),relative viability (Sorafenib + Olaparib; first compound 0.08 µM),relative viability (Sorafenib + Olaparib; first compound 0.253 µM),relative viability (Sorafenib + Olaparib; first compound 2.53 µM),relative viability (Sorafenib + Olaparib; first compound 8 µM),relative viability (Sorafenib + OSI-027; first compound 0.08 µM),relative viability (Sorafenib + OSI-027; first compound 0.253 µM),relative viability (Sorafenib + OSI-027; first compound 2.53 µM),relative viability (Sorafenib + OSI-027; first compound 8 µM),relative viability (Sorafenib + Navitoclax; first compound 0.08 µM),relative viability (Sorafenib + Navitoclax; first compound 0.253 µM),relative viability (Sorafenib + Navitoclax; first compound 2.53 µM),relative viability (Sorafenib + Navitoclax; first compound 8 µM)
PC-3 [JPC-3],1.07,0.987,1.08,1.12,1.07,1.05,0.985,0.882,1.18,1.12,1.18,0.944,0.805,0.722,0.692,0.617,0.883,0.775,0.806,0.877
PC-14,1,0.848,0.854,0.753,1.02,0.945,1.11,0.913,0.323,0.315,0.238,0.105,0.96,–,0.745,0.321,1.02,0.949,0.888,0.955
RERF-LC-KJ,1.03,0.989,0.951,0.906,0.969,0.829,0.882,0.849,0.979,0.784,–,0.297,0.601,0.502,0.649,0.397,0.932,1.11,0.867,0.705
SK-LU-1,0.987,–,0.868,0.242,0.857,0.632,0.761,0.692,0.534,0.361,0.549,0.317,0.41,0.283,0.345,0.227,0.926,–,0.729,0.207
SK-MES-1,0.957,0.877,0.854,0.873,1.07,0.896,0.903,0.818,0.664,0.551,0.648,0.258,0.604,0.548,0.5,0.454,1.17,1.26,1.22,–
SW 1573,0.879,0.757,0.805,0.578,1.09,0.791,0.995,0.777,0.47,0.518,0.437,0.132,0.79,0.517,0.553,0.21,1.1,0.947,0.983,0.689
UMC-11,0.999,0.959,0.968,0.529,0.968,1.02,0.941,0.58,0.39,0.375,0.38,0.15,0.46,0.386,0.454,0.266,0.32,–,0.34,0.152
